Test systems include A549 NSCLC; MALME-3M melanoma; OVCAR-3 ovarian; NCI-H226 lung; 786-0 renal; HCC-2998 colon; TK-10 renal; U251 CNS; MDA-MB-231 breast; NCI/ADR-RES ovarian.
What all share (test): NCI anticancer screen, dose series, 48 h

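Step 1: Grow cells in 96-well plates. Step 2: Expose to compound for 48 hours at 5 concentrations. Step 3: Interpolate endpoints linearly; if unreached, use highest concentration. GI50 is the concentration that inhibits growth by half. Definition used: TGI = concentration required for complete inhibition of growth.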

`CN(CCc1ccccn1)/[N+]([O-])=N/O` (tested in a mixture with another compound): the TGI with A549 NSCLC, with MALME-3M melanoma, in the assay with OVCAR-3 ovarian, with NCI-H226 lung, in the assay with 786-0 renal and in the assay with HCC-2998 colon was > 100 µM throughout.

With `C=C1CCCC2OC(OC)CCC12` (centres undefined), the TGI with A549 NSCLC, in the assay with TK-10 renal, in the assay with MALME-3M melanoma, in the assay with OVCAR-3 ovarian, in the assay on NCI-H226 lung and with 786-0 renal was > 100 µM throughout. The TGI with U251 CNS and with HCC-2998 colon was > 100 µM each time.

In the case of `CCCCCCCCC1C(C)c2c([nH]c3ccccc23)C2C(=O)N(c3ccccc3)C(=O)C21` (centres undefined), the TGI stood at 38 µM in the assay with A549 NSCLC; 37.1 µM with TK-10 renal; 39.1 µM in the assay with MALME-3M melanoma; 16.7 µM with OVCAR-3 ovarian; 25.9 µM with NCI-H226 lung; 26.5 µM with 786-0 renal. In addition, the values for the TGI in the assay on U251 CNS and in the assay on HCC-2998 colon were 22.9 µM and 25.6 µM, respectively.

Take `NS(=O)(=O)c1ccc(-n2nc(-c3ccccc3)cc2-c2cc(O)ccc2O)cc1`: the GI50 in the assay on MDA-MB-231 breast was 25.6 µM; in the assay with A549 NSCLC it was > 100 µM; in the assay on TK-10 renal it was 35.9 µM; with OVCAR-3 ovarian, > 100 µM; with NCI-H226 lung, > 100 µM; in the assay with NCI/ADR-RES ovarian, > 100 µM. In addition, the GI50 with 786-0 renal was 90.8 µM; in the assay with U251 CNS, 46.4 µM. The TGI in the assay with MDA-MB-231 breast was 72 µM; in the assay on A549 NSCLC, > 100 µM; with TK-10 renal it was 95.2 µM; with OVCAR-3 ovarian, > 100 µM; in the assay with NCI-H226 lung it was > 100 µM; in the assay on NCI/ADR-RES ovarian, > 100 µM. For the same compound, the TGI in the assay with 786-0 renal and in the assay with U251 CNS was > 100 µM throughout.

With `CCOC1Oc2ccccc2C(=O)/C1=C\Nc1ccc(C(=O)O)c(O)c1` (centres undefined), the GI50 in the assay on MDA-MB-231 breast is 14 µM; with A549 NSCLC, > 100 µM; with TK-10 renal, 22.8 µM; in the assay on OVCAR-3 ovarian, 25.2 µM; in the assay on NCI-H226 lung it was 28.1 µM; in the assay on NCI/ADR-RES ovarian, 20.5 µM. Besides, the GI50 was 30.1 µM with 786-0 renal and 19.1 µM in the assay with U251 CNS. The TGI was 31.2 µM with MDA-MB-231 breast; > 100 µM with A549 NSCLC; 61.3 µM with TK-10 renal; 56.3 µM in the assay on OVCAR-3 ovarian; 80.1 µM in the assay with NCI-H226 lung; 62 µM in the assay with NCI/ADR-RES ovarian. Besides, the TGI is > 100 µM with 786-0 renal and 46.5 µM in the assay on U251 CNS.

As to `CSC(=NC(=O)c1ccccc1)SCCSC(=NC(=O)c1ccccc1)SC`, the TGI in the assay with A549 NSCLC, in the assay with TK-10 renal, in the assay on MALME-3M melanoma, in the assay on OVCAR-3 ovarian, in the assay on NCI-H226 lung and with 786-0 renal was > 100 µM in each case. In addition, the TGI with U251 CNS and in the assay with HCC-2998 colon was > 100 µM each time.

Turning to `CC(C)c1ccc(C(O)(C(=O)O)c2ccc(C(C)C)cc2)cc1`, the TGI is > 100 µM with A549 NSCLC; > 100 µM in the assay with TK-10 renal; > 100 µM in the assay on MALME-3M melanoma; 60.7 µM in the assay with OVCAR-3 ovarian; 54.6 µM in the assay with NCI-H226 lung; > 100 µM in the assay on NCI/ADR-RES ovarian. The results for the TGI with 786-0 renal and with U251 CNS were > 100 µM and 42.9 µM, respectively.

On to `CC1(C)C=C(N2CCN(C3=CC(C)(C)NC(C)(C)C3)CC2)CC(C)(C)N1`, for which the TGI in the assay on A549 NSCLC, in the assay with TK-10 renal, in the assay on OVCAR-3 ovarian, in the assay on 786-0 renal, in the assay with U251 CNS and in the assay with HCC-2998 colon was > 100 µM each time.

In the case of `O=C(CC1(O)C(=O)Nc2c(Cl)cc(Cl)cc21)c1ccc([N+](=O)[O-])cc1` (centres undefined), the TGI in the assay on A549 NSCLC was > 100 µM; with TK-10 renal it was > 100 µM; in the assay with MALME-3M melanoma it was > 60.7 µM; with OVCAR-3 ovarian, > 64.1 µM; with NCI-H226 lung, > 73.3 µM; in the assay with 786-0 renal, > 100 µM. In addition, the TGI in the assay on U251 CNS and in the assay with HCC-2998 colon was > 100 µM in each case.

As for `CC(=O)CCn1[nH]c(=O)c(Cl)c(Cl)c1=O`, the TGI in the assay on A549 NSCLC, in the assay on TK-10 renal, in the assay on MALME-3M melanoma, with OVCAR-3 ovarian, with NCI-H226 lung and in the assay with 786-0 renal was > 100 µM in each case. The TGI in the assay on HCC-2998 colon is > 100 µM.

Turning to `CC(/C=C1\CCC(CN(C)C)C1=O)c1cccc(Br)c1` (centres undefined), the TGI with A549 NSCLC was > 96.2 µM; with TK-10 renal, 30.6 µM; with MALME-3M melanoma it was 32.4 µM; with OVCAR-3 ovarian, 30.8 µM; in the assay on NCI-H226 lung, 48.8 µM; with 786-0 renal, 12.3 µM. The values for the TGI with U251 CNS and in the assay with HCC-2998 colon were 32.4 µM and 35.9 µM, respectively.

Regarding `O=C1C(c2ccccc2)=[N+]([O-])c2cc([N+](=O)[O-])ccc21`, the TGI is > 100 µM in the assay on A549 NSCLC; 52.4 µM in the assay with TK-10 renal; 36.1 µM in the assay with MALME-3M melanoma; 36.8 µM with OVCAR-3 ovarian; > 100 µM in the assay with NCI-H226 lung; 63.3 µM in the assay with 786-0 renal. The TGI was > 100 µM in the assay on U251 CNS and 77.4 µM in the assay with HCC-2998 colon.

As to `COc1ccc(C(=O)Nc2ccn(CCOC(=O)c3ccc(OC)cc3)c(=O)n2)cc1`, the TGI with A549 NSCLC, in the assay on TK-10 renal, in the assay on MALME-3M melanoma, in the assay on OVCAR-3 ovarian, with NCI-H226 lung and in the assay on 786-0 renal was > 100 µM in each case. Also, the TGI in the assay with U251 CNS was > 100 µM.

Consider `CCCc1nn(C)c(CCC(=O)N(Cc2ccccc2)Cc2ccccc2)c1CC`, for which the TGI in the assay with A549 NSCLC, in the assay on TK-10 renal, with MALME-3M melanoma, in the assay on OVCAR-3 ovarian, in the assay on NCI-H226 lung and with 786-0 renal was > 100 µM in each case. The TGI in the assay with U251 CNS and in the assay on HCC-2998 colon was > 100 µM in each case.

In the case of `CC1=C(C(=O)Nc2ccccc2C)C(c2ccccc2O)C(C(=O)Nc2ccccc2C)=C(C)N1`, the TGI in the assay on A549 NSCLC is > 100 µM; in the assay on TK-10 renal, 86 µM; in the assay with MALME-3M melanoma, 92.4 µM; in the assay with OVCAR-3 ovarian, 36.3 µM; in the assay on NCI-H226 lung, > 100 µM; with 786-0 renal, 31.2 µM. This compound also registered a TGI in the assay on HCC-2998 colon of 29.6 µM.

For the origin of these results see PubChem BioAssay (NCI).
